Like-named read-outs stand apart in the source and are kept apart here. Marks after values point to notes of the source that are not given here.
Tests used:
[1] = logP by HPLC on reversed-phase columns (C 18), EEC Directive 79/831 Annex V.A8; type: physicochemical
Protocol: Calibration is carried out using unbranched alkan-2-ones (having from 3 to 16 carbon atoms) with known log P values (the log P values are determined by the retention times using linear interpolation between two successive alkanones).

[2] = system: greenhouse red spider mite (Tetranychus urticae); test: Tetranychus urticae spray test, OP-resistant (TETRUR), bean leaf disks; type: in vivo; settings: application rate 500 g/ha, after 6 days; for pest or weed control at 500 g/ha: Tetranychus urticae, foliar, 144 h, read-out: efficacy (spider mites killed)
Protocol: After 6 days, the effect in % is determined.

[3] = [a] LC-MS, acidic range, pH 2.7, 0.1% aqueous formic acid/acetonitrile
[4] = reversed-phase C18 HPLC column, pH 2.7, [a] LC-MS, acidic range, pH 2.7, 0.1% aqueous formic acid/acetonitrile, read-out: logP(HCOOH)
[5] = reversed-phase C18 HPLC column, pH 7.8, [b] LC-MS, neutral range, pH 7.8, 0.001 molar aqueous ammonium bicarbonate/acetonitrile, read-out: logP(neutral)
[6] = [a] LC-MS, acidic range, pH 2.7, 0.1% aqueous formic acid/acetonitrile, read-out: logP(HCOOH)
[7] = [b] LC-MS, neutral range, pH 7.8, 0.001 molar aqueous ammonium bicarbonate/acetonitrile, read-out: logP(neutral)

chromatographic logP [1, 4]	Compound	pest or weed control at 500 g/ha [2] [%]	other results
	Cc1cc(F)c(NC(=S)NCC(F)(F)F)cc1[S+]([O-])CC(F)(F)F (stereo not drawn)		logP(HCOOH) [1, 3]: 2.34; logP(neutral) ([1]; [b] LC-MS, neutral range, pH 7.8, 0.001 molar aqueous ammonium bicarbonate/acetonitrile): 2.30
	Cc1cc(C)c(SCC(F)(F)F)cc1N=C1NCCO1 [2,4-Dimethyl-N-[1,3-oxazolidin-2-ylidene]-5-[(2,2,2-trifluoroethyl)sulfanyl]aniline]		chromatographic logP ([1]; pH 2.7, logP(HCOOH)): 1.36
0.8	Cc1cc(F)c(N=C2NCCS2)cc1[S+]([O-])CC(F)(F)F (stereo not drawn) [2-Fluoro-4-methyl-N-[1,3-thiazolidin-2-ylidene]-5-[(2,2,2-trifluoroethyl)sulfinyl]aniline]		
1.83	Cc1cc(F)c(/N=C2\CCCN2c2ccccc2)cc1SCC(F)(F)F [2-Fluoro-4-methyl-N-[(2E)-1-phenylpyrrolidin-2-ylidene]-5-[(2,2,2-trifluoroethyl)sulfanyl]aniline]		chromatographic logP [1, 5]: 4.92
2.01	Nc1cccc(SCC(F)(F)F)c1 [3-[(2,2,2-Trifluoroethyl)sulfanyl]aniline]		
3.16	Cc1cc(F)c(SCC(F)(F)F)cc1NC(=O)C(F)(F)F [III-4, 2,2,2-Trifluoro-N-{4-fluoro-2-methyl-5-[(2,2,2-trifluoroethyl)sulfanyl]phenyl}acetamide]		chromatographic logP [1, 5]: 3.1
3.78	O=C(Nc1cc(SCC(F)(F)F)c(Br)cc1Cl)C(F)(F)F [III-5, N-{4-Bromo-2-chloro-5-[(2,2,2-trifluoroethyl)sulfanyl]phenyl}-2,2,2-trifluoroacetamide]		
3.81	O=C(Nc1cc(SCC(F)(F)F)c(Br)cc1Br)C(F)(F)F [III-6, N-{2,4-Dibromo-5-[(2,2,2-trifluoroethyl)sulfanyl]phenyl}-2,2,2-trifluoroacetamide]		
3.33	O=C(Nc1cc(SCC(F)(F)F)c(F)cc1Cl)C(F)(F)F [III-7, N-{2-Chloro-4-fluoro-5-[(2,2,2-trifluoroethyl)sulfanyl]phenyl}-2,2,2-trifluoroacetamide]		chromatographic logP [1, 5]: 3.11
	O=C(Nc1cc(SCC(F)(F)F)c(Br)cc1Cl)C(F)(F)F [III-9, N-{4-Bromo-2-chloro-5-[(2,2,2-trifluoroethyl)sulfanyl]phenyl}-2,2,2-trifluoroacetamide]		logP(HCOOH) [1, 3]: 3.46; chromatographic logP [1, 5]: 3.11
4	Cc1cc(F)c(SSc2cc(NC(=O)C(F)(F)F)c(C)cc2F)cc1NC(=O)C(F)(F)F [IV-2, N,N′-[Disulfanediylbis(4-fluoro-6-methylbenzene-3,1-diyl)]bis(2,2,2-trifluoroacetamide)]		chromatographic logP [1, 5]: 3.92
5.42	O=C(Nc1cc(SSc2cc(NC(=O)C(F)(F)F)c(Cl)cc2Br)c(Br)cc1Cl)C(F)(F)F [IV-3, N,N′-[Disulfanediylbis(4-bromo-6-chlorobenzene-3,1-diyl)]bis(2,2,2-trifluoroacetamide)]		
5.62	O=C(Nc1cc(SSc2cc(NC(=O)C(F)(F)F)c(Br)cc2Br)c(Br)cc1Br)C(F)(F)F [IV-4, N,N′-[Disulfanediylbis(4,6-dibromobenzene-3,1-diyl)]bis(2,2,2-trifluoroacetamide)]		chromatographic logP [1, 5]: 4.49
4.45	O=C(Nc1cc(SSc2cc(NC(=O)C(F)(F)F)c(Cl)cc2F)c(F)cc1Cl)C(F)(F)F [IV-5, N,N′-[Disulfanediylbis(6-chloro-4-fluorobenzene-3,1-diyl)]bis(2,2,2-trifluoroacetamide)]		chromatographic logP [1, 5]: 3.81
4.76	O=C(Nc1cc(SSc2cc(NC(=O)C(F)(F)F)c(F)cc2Br)c(Br)cc1F)C(F)(F)F [IV-7, N,N′-[Disulfanediylbis(4-bromo-6-fluorobenzene-3,1-diyl)]bis(2,2,2-trifluoroacetamide)]		chromatographic logP [1, 5]: 4.02
	Cc1cc(F)c(N=C(NS(C)(=O)=O)C(F)(F)F)cc1SCC(F)(F)F [Ia-11]		logP(HCOOH) ([1]; pH 2.7): 3.05^[a]; efficacy (spider mites killed) [2]: 100%
	Cc1cc(F)c(SCC(F)(F)F)cc1N=C(N(C)C)C(F)(F)F [Ia-24]		logP(HCOOH) ([1]; pH 2.7): 4.53; logP(neutral) ([1]; pH 7.8): 4.47
4.62	Cc1cc(F)c(/N=C(/NCC2CC2)C(F)(F)F)cc1SCC(F)(F)F [Ia-41]	100	
1.37	Cc1cc(F)c(N=C(N)c2ccccc2F)cc1SCC(F)(F)F [Ia-143]		chromatographic logP [1, 5]: 3.25
1.27	Cc1cc(F)c(/N=C2\CCCN2c2ccccc2)cc1[S+]([O-])CC(F)(F)F (stereo not drawn) [Ib-55, 2-Fluoro-4-methyl-N-[(2E)-1-phenylpyrrolidin-2-ylidene]-5-[(2,2,2-trifluoroethyl)sulfinyl]aniline]		chromatographic logP [1, 5]: 3.47
	CN/C(=N\c1cc([S+]([O-])CC(F)(F)F)c(Cl)cc1Cl)c1ccc(C(F)(F)F)nc1 (stereo not drawn) [Ib-144]	90	
	CN/C(=N/c1cc([S+]([O-])CC(F)(F)F)c(C)cc1F)c1ccc(C(F)(F)F)cc1 (stereo not drawn) [Ib-145]	90	
	O=C1CS/C(=N\c2ccc(Cl)c([S+]([O-])CC(F)(F)F)c2)N1CC(F)(F)F (stereo not drawn) [Ib-146]	90	
	Cc1cc(C)c([S+]([O-])CC(F)(F)F)cc1/N=C(/c1ccccc1Cl)N(C)C (stereo not drawn) [Ib-147]	90	
	CN/C(=N/c1cc([S+]([O-])CC(F)(F)F)c(C)cc1F)c1ccccc1C(F)(F)F (stereo not drawn) [Ib-148]	100	

chromatographic logP [1, 4]	Compound	pest or weed control at 500 g/ha [2] [%]	other results
	CN/C(=N\c1cc([S+]([O-])CC(F)(F)F)c(Cl)cc1Cl)c1ccc(Cl)cc1 (stereo not drawn) [Ib-149]	90	
	CCN/C(=N\c1cc([S+]([O-])CC(F)(F)F)c(Cl)cc1Cl)c1cccnc1 (stereo not drawn) [Ib-150]	90	
	[O-][S+](CC(F)(F)F)c1cc(/N=C(\NC2CC2)c2ccc(Cl)nc2)c(Cl)cc1Cl (stereo not drawn) [Ib-151]	100	
	CN/C(=N\c1cc([S+]([O-])CC(F)(F)F)c(Cl)cc1Cl)c1ccncc1 (stereo not drawn) [Ib-152]	90	
	Cc1cc(Cl)c([S+]([O-])CC(F)(F)F)cc1/N=C(\N)c1cnccn1 (stereo not drawn) [Ib-153]	90	
	Cc1cc(C)c([S+]([O-])CC(F)(F)F)cc1/N=C(/c1ccc(Cl)cc1)N(C)C (stereo not drawn) [Ib-154]	90	
	Cc1cc(C)c([S+]([O-])CC(F)(F)F)cc1/N=C(\NCC(F)(F)F)C1CCCC1 (stereo not drawn) [Ib-155]	90	
	Cc1cc(C)c([S+]([O-])CC(F)(F)F)cc1/N=C1\SCC(=O)N1C1CC1 (stereo not drawn) [Ib-156]	90	
	Cc1cc(C)c([S+]([O-])CC(F)(F)F)cc1/N=C(/c1ccccc1Cl)N1CCOCC1 (stereo not drawn) [Ib-157]	90	
	Cc1cc(F)c(/N=c2\sc(C)c(C)n2CC(F)(F)F)cc1[S+]([O-])CC(F)(F)F (stereo not drawn) [Ib-158]	90	
	Cc1cc(C)c([S+]([O-])CC(F)(F)F)cc1/N=C(\NC(C)C(F)(F)F)C1CC1 (stereo not drawn) [Ib-160]	100	
1.28	COc1ccccc1/C(=N\c1cc([S+]([O-])CC(F)(F)F)c(C)cc1F)N(C)C (stereo not drawn) [Ib-161]		chromatographic logP [1, 5]: 2.95
	Cc1cc(F)c(/N=C(\NCC(F)(F)F)C2CCC2)cc1[S+]([O-])CC(F)(F)F (stereo not drawn) [Ib-166]	90	
	[O-][S+](CC(F)(F)F)c1cc(/N=C(\NCC(F)(F)F)C2CCC2)c(Cl)cc1Cl (stereo not drawn) [Ib-167]	90	
	Cc1cc(F)c(/N=C2\CCCN2C(C)C(F)(F)F)cc1[S+]([O-])CC(F)(F)F (stereo not drawn) [Ib-169]	100	
	Cc1cc(F)c(/N=c2\scc(C3(Cl)CC3)n2CC(F)(F)F)cc1[S+]([O-])CC(F)(F)F (stereo not drawn) [Ib-172]	90	
	Cc1cc(F)c(/N=c2\snc(C)n2C)cc1[S+]([O-])CC(F)(F)F (stereo not drawn) [Ib-174]	100	
2.73	COc1cc(C)c(SSc2cc(NC(C)=O)c(OC)cc2C)cc1NC(C)=O [N,N′-[Disulfanediylbis(6-methoxy-4-methylbenzene-3,1-diyl)]diacetamide]		
4.2	Cc1cc(F)c(NC(=O)c2ccc(C(F)(F)F)cc2)cc1SCC(F)(F)F [N-{2-Fluoro-4-methyl-5-[(2,2,2-trifluoroethyl)sulfanyl]phenyl}-4-(trifluoromethyl)benzamide]		chromatographic logP [1, 5]: 4.17
4.77	FC(F)(F)CSc1cc(N=C(Cl)C(F)(F)F)ccc1Cl [N-{4-Chloro-3-[(2,2,2-trifluoroethyl)sulfanyl]phenyl}-2,2,2-trifluoroethanimidoyl chloride]		chromatographic logP [1, 5]: 4.73
2.2	Cc1cc(F)ccc1NC(=O)C(F)(F)F [VI-2, 2,2,2-Trifluoro-N-(4-fluoro-2-methylphenyl)acetamide]		chromatographic logP [1, 5]: 2.19
	O=C(Nc1ccc(Br)cc1Cl)C(F)(F)F [VI-3, N-(4-Bromo-2-chlorophenyl)-2,2,2-trifluoroacetamide]		chromatographic logP [1, 6]: 3.01; chromatographic logP [1, 7]: 2.81
	O=C(Nc1ccc(Br)cc1Br)C(F)(F)F [VI-4, N-(2,4-Dibromophenyl)-2,2,2-trifluoroacetamide]		chromatographic logP [1, 6]: 3.1; chromatographic logP [1, 7]: 2.89
	O=C(Nc1ccc(F)cc1Cl)C(F)(F)F [VI-5, N-(2-Chloro-4-fluorophenyl)-2,2,2-trifluoroacetamide]		chromatographic logP [1, 6]: 2.46; chromatographic logP [1, 7]: 2.31
	O=C(Nc1ccc(Br)cc1F)C(F)(F)F [VI-7, N-(4-Bromo-2-fluorophenyl)-2,2,2-trifluoroacetamide]		chromatographic logP [1, 6]: 2.73; chromatographic logP [1, 7]: 2.51
